Assay results published in US12527766B2, “Methods of treating acute coronary syndrome using 3,3′-diindolylmethane” (Boulder BioScience LLC, priority 2020, dated 2026).
Where a name gives a salt, the structure may show the parent alone.

Columns and labels:
human neutrophils [1] = assay: Fluorescent imaging of extracellular DNA (Sytox Orange microscopy); assay type: cell-based
Excerpt: (§1) Neutrophil isolation: Neutrophils were isolated from the peripheral blood of healthy donors, under a protocol approved by an institutional ethics committee. All subjects gave written informed consent in accordance with the Declaration of Helsinki. Briefly, whole blood was collected using an anticoagulant (sodium citrate), and isolated as previously described using a Percoll gradient separation of neutrophils from other leukocytes (Modulation of multiple neutrophil functions by preparative methods or trace concentrations of bacterial lipopolysaccharide. Haslett C, et al. Am J Pathol. 1985 April; 119(1): 101-10). Neutrophils were suspended in RPMI, 2% heat-inactivated human plasma, and 10 mM HEPES, pH7.5 (complete RPMI) to a neutrophil specific concentration of 2.2×10^6 neutrophils/ml.
Fluorescent imaging of extracellular DNA for photo-micrograph data: Neutrophils (5×10^5 per well) were spotted on a glass microscope chamber slide (Ibidi) and cells were stimulated for 4 hours as indicated above with F Protein or LPS, at 37° C. in a humidified chamber, and stained with 0.2 μM Sytox Orange for the final 10 minutes. The slides were fixed in 2% formaldehyde (Sigma) for 10 min at room temperature and imaged.

[2] = tested on: carotid artery thromboses; assay: FeCl3 carotid artery thrombosis in mice, H&E fibrin content; assay type: in vivo, mice (C57BL6/J); settings: DIM treated animals (oral and IV groups)
Description: Animals: All mice were of C57BL6/J background. Specific pathogen-free mice were obtained from Envigo, USA. All mice used for experiments were between 11 and 14 weeks old. Each experimental group was weight and sex-matched so that experiments were carried out on male and female mice with similar weight and in equal sex distribution between groups. All procedures were performed on anaesthetized animals using a uniform technique of inhaled Isoflurane combined with supplemental parenteral agents. Animals were sacrificed under deep anesthesia. All animal experiments were carried out according to the guidelines from the Guide for Care and Use of Laboratory Animals and The Public Health Service (PHS) Policy on Humane Care and Use of Laboratory Animals. All experimental procedures performed on animals met the requirements of the Guide for the protection of animals used for scientific purposes. Induction of arterial thrombosis after Ferric Chloride exposure: For thrombus induction in the distal carotid artery in vivo, local application of FeCl3 was used following an established method (Wang et al, 2005, supra). In brief, mice were anesthetized using 2-3% inhaled isoflurane, shifting to lower dose maintenance isoflurane and supplemented with a fixed combination of intra-peritoneal buprenorphine, midazolam and dexmedetomidine. […]

human neutrophils [3] = assay: Sytox Orange extracellular DNA release (NET) assay; assay type: cell-based
Excerpt: as §1
First Neutrophil Extracellular Trap (NET) indicating assay: A Sytox Orange extracellular DNA release assay was utilized. For the experiments using DIM from self-emulsifying SMEDDS BR-9001 (i.e., Example 1), purified human neutrophils (2×10^5 per sample) in complete RPMI were allowed to settle in 24-well plates in the presence of DIM from self-emulsifying DIM formulation SMEDDS—BR-9001 (12% DIM) providing experimental DIM concentrations of 1, 3, 10, and 30 μM. Control wells received SMEDDS excipient vehicle mixture alone (diluted to provide excipient mixture concentrations equivalent to excipients present in the 3 and 30 μM DIM experimental wells). Neutrophils (2×10^5 per well) were plated in a black-walled 96-well plate and allowed to settle in the presence of DIM from BR-9001 or excipient vehicle control for 30 min. After 30 minutes neutrophils in wells were stimulated with recombinant fusion protein (F Protein (1 μg/ml, Sino Biologicals) or phenolextracted lipopolysaccharide (LPS; 10 μg/ml; List Biologicals). and 5 μM Sytox Orange (Thermo Fisher) was added and gently mixed. The plate was placed in a prewarmed (37° C.) fluorescence plate reader (BioTek FLX-800) and fluorescence read at excitation/emission of 540/600 every 10 minutes over 4 hours. Following this, 1% saponin was added to lyse neutrophils to provide 100% DNA release for experiments presented in FIGS. 1A and 1B. This allowed results to be presented as proportion of total DNA in these experiments. Otherwise results are reported as relative fluorescent units (FIGS. 3A and 3B). The kinetics or 4-hour results were reported as described (Sec FIGS. 1A and 1B and FIG. 3A).
A second set of experiments were performed using crystalline DIM solubilized in DMSO prior to addition to culture wells. […] The plate was placed in a prewarmed (37° C.) fluorescence plate reader and fluorescence read as above every 10 minutes over 4 hours. […]

[4] = following oral administration; cited from earlier work
[5] = cited from earlier work; for Log P: table of second active agents; for Log P of Second Active Agent: co-formulation table
[6] = in vivo and in vitro; cited from earlier work

Compound: c1ccc2c(Cc3c[nH]c4ccccc34)c[nH]c2c1 [DIM, 3,3′-diindolylmethane]
- extracellular DNA positive cells (microscopy) (human neutrophils [1]; 3 μM to 30 μM DIM): dose response
- visualization of extracellular DNA (microscopy) (human neutrophils [1]; API (free) DIM, F Protein and LPS, 4 h): inhibited visualization of extracellular DNA
- thrombus composition (H&E) versus Vehicle Control [2]: less compact thrombi, primarily composed of red cells (RBCs), with a minimum of fibrin and lower presence of leukocytes
- delay in DNA release versus absence of DIM (human neutrophils [3]; F protein and LPS stimulated neutrophils): about 1 hours
- IC50 (human neutrophils [3]; Homo sapiens, Neutrophil, free DIM (crystalline, in DMSO), read-out: estimated IC50, inhibition of DNA release): 3 to 30 µM
- effect on DNA release (Sytox Orange) (human neutrophils [3]; free DIM in DMSO 1, 3, 10, 30 μM, F Protein 1 μg/ml): dose-dependent inhibitory effect
- spontaneous DNA release (human neutrophils [3]; non-stimulated neutrophils): did not inhibit
- tissue distribution [4]: concentrates in brain tissue

Compound: COC(=O)/C=C/C(=O)OC [Dimethyl Fumarate, Dimethyl fumarate]
- Log P [5]: Log P - 0.62

Compound: O=c1c2ccccc2[se]n1-c1ccccc1 [Ebselen]
- Log P [5]: Log P - 2.65

Compound: CCCCCCCCc1ccc(CCC(N)(CO)CO)cc1 [Fingolimod]
- Log P of Second Active Agent [5]: 5.25
- Log P [5]: Log P - 5.25

Compound: CCCSc1nc(N[C@@H]2C[C@H]2c2ccc(F)c(F)c2)c2nnn([C@@H]3C[C@H](OCCO)[C@@H](O)[C@H]3O)c2n1 [Ticagrelor]
- Log P of Second Active Agent [5]: 1.90
- Log P [5]: Log P - 1.90

Compound: OCc1c[nH]c2ccccc12 [indole-3-carbinol, 1H-indol-3-ylmethanol]
- conversion products [6]: converts to DIM and LTR

Compound: Anakinra: recombinant and slightly modified version of the human interleukin 1 receptor antagonist protein
- Log P [5]: Log P - 2.69
